In assay [1] the test system is retinal blood vessel. The conditions noted are these: cited from earlier work.
For assay [2], the system named is porcine retinal artery treated with ODQ. In words: Retinal vasodilation test using porcine retinal extraction artery treated with ODQ (guanylate cyclase inhibitor). The assay is classed as cell-based, pig. The method, then:
(§1) Pigs aged 8 to 12 weeks were euthanized. Immediately after euthanization, the eyeballs were excised. A retinal artery was separated from the excised eyeballs (Nagaoka et al., Invest Ophthalmol Vis Sci. 2007 February; 48(2):825-32.). An anterior eye part and a vitreous body were carefully taken out with an anatomical microscope. A posterior eye part was placed in an ice-cold dissection chamber containing a physiological saline solution (PSS: 145.0 mM NaCl, 4.7 mM KCl, 2.0 mM CaCl2), 1.17 mM MgSO4, 1.2 mM NaH2PO4, 5.0 mM glucose, 2.0 mM pyruvic acid, 0.02 mM EDTA, and 3.0 mM [3-(N-morpholino) propanesulfonic acid] (MOPS)) to which 1% albumin was added. […] Thereafter, the inner diameter was continuously measured and recorded during the experiment. […]
(§2) The blood vessel was relaxed with EDTA (1 mM)-calcium-free PSS, and the maximum diameter was obtained at a lumen pressure of 55 cmH2O. The change in diameter of the blood vessel in response to nobiletin was standardized by the maximum vasodilation and expressed as a percentage with respect to the maximum vasodilation. […]
In the same manner as in Example 1, the porcine retinal extraction artery was treated with ODQ, and the role of guanylate cyclase in the retinal vasodilating effect of nobiletin was evaluated (n=7).

Assay [3] relates to rat mesenteric artery. The conditions noted are these: pre-contracted with phenylephrine; vascular endothelium-dependent; cited from earlier work.
Assay [4] has as its system porcine retinal artery. The experiment in a line: Retinal vasodilation test using porcine retinal extraction artery. Format: cell-based, pig. The method, then:
Pigs aged 8 to 12 weeks were euthanized. Immediately after euthanization, the eyeballs were excised. A retinal artery was separated from the excised eyeballs (Nagaoka et al., Invest Ophthalmol Vis Sci. 2007 February; 48(2):825-32.). An anterior eye part and a vitreous body were carefully taken out with an anatomical microscope. A posterior eye part was placed in an ice-cold dissection chamber containing a physiological saline solution (PSS: 145.0 mM NaCl, 4.7 mM KCl, 2.0 mM CaCl2), 1.17 mM MgSO4, 1.2 mM NaH2PO4, 5.0 mM glucose, 2.0 mM pyruvic acid, 0.02 mM EDTA, and 3.0 mM [3-(N-morpholino) propanesulfonic acid] (MOPS)) to which 1% albumin was added. A single secondary retinal artery (in-situ inner diameter: 90 to 130 μm, length: 0.6 to 1.0 mm) was carefully dissected using a Dumont microdissection forceps (Fine Science Tools, Inc., Foster City, CA) under observation with a stereomicroscope (model SZX12; Olympus, Melville, NY). After carefully removing the remaining nerve tissue and connective tissue, an artery was transferred to a Lucite-made blood vessel chamber into which a PSS-albumin solution equilibrated with air at room temperature was added for cannula insertion. A glass micro pipette (outer diameter of distal end: 30 to 40 μm) filled with the PSS-albumin solution was used to cannulate one end of the artery, and the outside of the artery was firmly tied to a pipette with 11-0 ophthalmic suture (Alcon, Fort Worth, TX). The other end of the blood vessel was cannulated with a second micro pipette and fixed with a suture. After the cannula insertion, the blood vessel and the pipette were transferred to the stage of an inverted microscope (model CKX41, Olympus); and a video camera (Sony DXC-190, Labtek, Campbell, CA), a video micrometer (Cardiovascular Research Institute, Texas A&M System Health Science Center, College Station, TX), and a data collection system (PowerLab, ADInstruments, Colorado Springs, CO) were connected to each other. Thereafter, the inner diameter was continuously measured and recorded during the experiment. The micro pipette was connected to an independent pressure reservoir (a 30 mL glass syringe). The blood vessel was pressurized to a lumen pressure of 55 cm H2O (40 mmHg) by adjusting the height of the reservoir.
The cannula-inserted arteriole was immersed in PSS at 36° C. to 37° C. to generate a basal tone. […] After the control reaction was terminated, the blood vessel was washed with PSS, and the basal tone was re-generated. […]
as §2

The subject of assay [5] is porcine retinal artery denuded of endothelium. The experiment in a line: Retinal vasodilation test using porcine retinal extraction artery denuded of endothelium (CHAPS). Format: cell-based, pig. The conditions noted are these: n=11, FIG. 3 (Example 3). The method, then:
as §1, with “added. A single secondary retinal artery (in-situ inner diameter: 90 to 130 μm, length: 0.6 to 1.0 mm) was carefully dissected using a Dumont microdissection forceps (Fine Science Tools, Inc., Foster City, CA) under observation with a stereomicroscope (model SZX12; Olympus, Melville, NY).” for “added.”
The blood vessel was relaxed with EDTA (1 mM)-calcium-free PSS, and the maximum diameter was obtained at a lumen pressure of 55 cmH2O. The change in diameter of the blood vessel in response to nobiletin was standardized by the maximum vasodilation and expressed as a percentage with respect to the maximum vasodilation.

The subject of assay [6] is rat pulmonary artery. The conditions noted are these: cited from earlier work.
In assay [7] the test system is rat aorta. The settings on record: pre-contracted with phenylephrine; vascular endothelium-independent; cited from earlier work.

Where two headings read alike, the source gives them in different places.

Data on 6 molecules can be found in US20260256731A1, “RETINAL VASODILATOR AND PHARMACEUTICAL COMPOSITION” (TEIKYO UNIVERSITY, priority 2022, published 2026).

For `O=C1CCc2cc(OCCCCc3nnnn3C3CCCCC3)ccc2N1` [Cilostazol], the Maximum vasodilation rate in assay [1] (concentration 10^-5M) is 40%.
As for `COc1ccc(-c2cc(=O)c3c(OC)c(OC)c(OC)c(OC)c3o2)cc1OC` [Nobiletin, 2-(3,4-Dimethoxyphenyl)-5,6,7,8-tetramethoxychromen-4-one], the “retinal vasodilating effect after treating the blood vessel with ODQ” value in assay [2] (ODQ 0.1 μM, 30 minutes, FIG. 1 (Example 1)) is given as “suppressed”. Further, in assay [2] (n=7, FIG. 4 (Example 4)), the “retinal vasodilating effect after addition of ODQ” value is listed as “suppressed”. Further, the vasodilating action entry in assay [3] and in assay [7] was “vasodilating action” each time. For the same molecule, the “retinal vasodilating effect compared with positive control SNP” value in assay [4] (FIG. 1 (Example 1)) is given as “higher than that of SNP”. In assay [4] (concentration 10^-4M, percentage with respect to the maximum vasodilation), this molecule came in with a Maximum vasodilation rate of 90%. Besides, in assay [4] (extracted porcine retinal artery, FIG. 1 (Example 1)), the retinal vasodilating effect result was “strong retinal vasodilating effect in a dose-dependent manner”. Moreover, the “vasodilating action in comparison with known medications” value in assay [4] (influence of the solvent excluded, Table 1) is listed as “most powerful vasodilating action”. Further, the “vasodilating effect in artery with vascular endothelium removed (denudation) compared with artery not denuded” value in assay [5] is reported as “suppressed”. The vasodilator response result in assay [6] is on record as “did not occur”.
In the case of `CCCCCCCC(=O)CC[C@@H]1[C@@H](C/C=C\CCCC(=O)O)[C@@H](O)C[C@H]1O` [Unoprostone], in assay [1] (concentration 10^-5M), the Maximum vasodilation rate is given as 30%.
Consider `Oc1ccc(C=Cc2cc(O)cc(O)c2)cc1` [Resveratrol], for which, in assay [1] (concentration 10^-4M), the Maximum vasodilation rate is on record as 60%.
Take `CC#CCC(C)[C@H](O)/C=C/[C@@H]1[C@H]2c3cccc(CCCC(=O)O)c3O[C@H]2C[C@H]1O` (mixture of isomers) [Beraprost]: the Maximum vasodilation rate in assay [1] (concentration 10^-7M) is given as 70%.

B1: Adiponectin (protein, UniProt Q15848 19-244, looked up)
Adiponectin: ETTTQGPGVLLPLPKGACTGWMAGIPGHPGHNGAPGRDGRDGTPGEKGEKGDPGLIGPKGDIGETGVPGAEGPRGFPGIQGRKGEPGEGAYVYRSAFSVGLETYVTIPNMPIRFTKIFYNQQNHYDGSTGKFHCNIPGLYYFAYHITVYMKDVKVSLFKKDKAMLFTYDQYQENNVDQASGSVLLHLEVGDQVWLQVYGEGERNGLYADNDNDSTFTGFLLYHDTN
As for B1, the Maximum vasodilation rate in assay [1] (concentration 8 μg/mL) is 50%.
